Counter-ions that a name gives are not always drawn. Like-named read-outs stand apart in the source and are kept apart here.
Columns and labels:
[1] = system: mouse ovalbumin (OVA) induced allergic and biphasic ear edema; experiment: Antigen (OVA) induced allergic and biphasic ear edema model; format: in vivo; details: male BALB/c mice, oral once a day from 2 days before induction, 3 or 10 mg/kg tested
Procedure: 3: Effect on Antigen Induced Allergic and Biphasic Ear Edema Model
The in vivo effect of the compound of the present invention was examined using a mouse ovalbumin (OVA) induced allergic and biphasic ear edema model. The model was prepared according to the method of Sugawara et al. (Allergy & Clinical Immunology International, Supplement No. 2, P 785, 2000). In other words, male BALB/c mice were immunized by intraperitoneal injection with 10 μg of OVA and 1 mg of aluminum hydroxide gel (Alum). At 14 days after immunization, OVA (5 μg) were subcutaneously injected to the both ears of the mouse, whereby ear edema was induced. The thickness of the ears was measured using a dial sickness gauge immediately before subcutaneous injection and 1 and 24 hrs after subcutaneous injection of OVA. The compound of the present invention was suspended in a vehicle, 0.5% hydroxypropylmethyl cellulose solution, and orally administered at 3 mg/kg or 10 mg/kg once a day using an orally gavage needle from 2 days before ear edema induction.

human eosinophils = experiment: Binding inhibitory test of chemokine ([125I]-eotaxin) to human eosinophils; details: 50 pmol/L [125I]-eotaxin, 2x10^5 eosinophils, 25°C, 1 hr; read-out: IC50 (concentration of test compound necessary for decreasing binding of [125I]-eotaxin to human eosinophils by 50%)
Procedure: Binding Inhibitory Test of Chemokine to Human Eosinophils
Human eosinophils were separated by the CD16 negative selection method from anticoagulation-treated peripheral blood of healthy subject (e.g., J. Immunol. Methods, vol. 145, pages 105-110, 1991). The separated eosinophils (2×10^5 cells), 50 pmol/L[^125I]-eotaxin (2000 Ci/mmoL, manufactured by Amersham Pharmacia Biotech) and a test compounds were mixed in 0.1 mL of binding buffer (50 mmol/L HEPES, 1 mmol/L CaCl2, 5 mmol/L MgCl2, 0.5% bovine serum albumin (BSA), 0.1% sodium azide, pH 7.4), and the mixture was incubated in a multiscreen plate (manufactured by MILLIPORE) at 25° C. for 1 hr. After incubation, the reaction mixture in the multiscreen plate was filtered by vacuum manifold, and washed with 0.6 mL of a cold washing buffer (50 mmol/L HEPES, 1 mmol/L CaCl2, 5 mmol/L MgCl2, 0.5 mol/L NaCl, 0.1% sodium azide, pH 7.4), and the radioactivity maintained on the filter was measured. […] The IC50 values (concentration of test compound necessary for decreasing binding of [^125I]-eotaxin to human eosinophils by 50%) of some of the compounds of the present invention were as follows.

CCR3 = biological target: T1, CCR3 (Homo sapiens, UniProt P51677); experiment: Effect on intracellular calcium concentration in eosinophils upon CCL11 stimulation; format: cell-based; details: peripheral blood eosinophils of healthy subject, agonist CCL11 1.0 nmol/L, compound 3 min before stimulation, Fura-2 AM; read-out: IC50 (50% suppression of the increase in the intracellular calcium concentration)
T1 construct: Eosinophils separated from peripheral blood of healthy subject; endogenous in cells; host or cells: eosinophils separated from peripheral blood of healthy subject
T1 sequence (P51677 1-355): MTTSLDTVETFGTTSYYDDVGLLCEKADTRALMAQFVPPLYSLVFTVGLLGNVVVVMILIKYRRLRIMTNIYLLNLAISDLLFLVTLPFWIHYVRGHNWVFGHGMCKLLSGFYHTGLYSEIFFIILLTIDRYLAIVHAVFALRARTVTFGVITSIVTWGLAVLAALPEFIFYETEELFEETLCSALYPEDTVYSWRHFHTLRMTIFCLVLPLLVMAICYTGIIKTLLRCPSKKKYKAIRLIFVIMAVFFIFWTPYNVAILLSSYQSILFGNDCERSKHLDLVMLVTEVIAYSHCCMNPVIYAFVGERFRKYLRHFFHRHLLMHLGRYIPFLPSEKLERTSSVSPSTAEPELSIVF
Procedure: Effect on Intracellular Calcium Concentration
The effect of the compound of the present invention on intracellular calcium mobilization in peripheral blood eosinophils of healthy subject upon CCL11 stimulation was examined by the following method.
Eosinophils separated from peripheral blood of healthy subject were suspended in 0.5% bovine serum albumin-containing phosphate buffered saline, and incubated at 37° C. for 45 min in the presence of 5 μmol/L of Fura-2 AM (manufactured by DOJINDO LABORATORIES).
After incubation, the cells were washed 3 times with a measurement buffer (10 mmol/L HEPES, and 0.5% bovine serum albumin-containing hanks' balanced salt solution) to remove Fura-2 AM that was not incorporated into the cells.
Finally, the cells were adjusted to 1×10^6 cells/mL with the measurement buffer and preserved in a dark place until measurement. The intracellular calcium was measured using FDSS3000 manufactured by Hamamatsu Photonics K.K. In other words, the cell suspension (0.1 mL) loaded with Fura-2 AM was placed in a 96 well plate for measurement, the fluorescence intensity to the excitation light at wavelengths 340 nm and 380 nm was measured by FDSS3000, the ratio of the fluorescence intensity to the excitation light at these two wavelengths was determined, based on which the intracellular calcium concentration was calculated. As the agonist, used was CCL11 (1.0 nmol/L), which is a CCR3 selective ligand, and the antagonistic activity was determined as 50% suppression rate (IC50 value) of the increase in the intracellular calcium concentration, when eosinophils were treated with various concentrations of the compound of the present invention at 3 min before agonist stimulation.

[2] = ear thickness 1 hr after OVA, read-out: Dose that showed a significant suppressive action vs vehicle, Immediate phase
[3] = ear thickness 24 hrs after OVA, read-out: Dose that showed a significant suppressive action vs vehicle, Late phase

SMILES | minimal effective dose [1, 2] | minimal effective dose [1, 3] | IC50 (human eosinophils) | IC50 (CCR3)
O=C(O)Cc1csc(SCC(=O)NC[C@H]2CN(Cc3ccc(Cl)c(Cl)c3)CCO2)n1 [Example 2, (2S)-[4-(carboxymethyl)thiazol-2-ylthio]-N-{[4-(3,4-dichlorobenzyl)morpholin-2-yl]methyl}acetamide] | 3 mg/kg | 3 mg/kg | 2.4 nM | 1.8 nM
Nc1cccc(-c2csc(SCC(=O)NC[C@H]3CN(Cc4ccc(Cl)c(Cl)c4)CCO3)n2)c1 [Example 9, (2S)-[4-(3-aminophenyl)thiazol-2-ylthio]-N-{[4-(3,4-dichlorobenzyl)morpholin-2-yl]methyl}acetamide] |  |  | 12.7 nM | 
NC(=O)c1cc(-c2csc(SCC(=O)NC[C@H]3CN(Cc4ccc(Cl)c(Cl)c4)CCO3)n2)ccc1O [Example 10, (2S)-[4-(3-carbamoyl-4-hydroxyphenyl)thiazol-2-ylthio]-N-{[4-(3,4-dichlorobenzyl)morpholin-2-yl]methyl}acetamide] |  |  | 2.4 nM | 
O=C(CSc1nc(-c2ccncc2)cs1)NC[C@H]1CN(Cc2ccc(Cl)c(Cl)c2)CCO1 [Example 11, (2S)-N-{[4-(3,4-dichlorobenzyl)morpholin-2-yl]methyl}-[4-(pyridin-4-yl)thiazol-2-ylthio]acetamide] |  |  | 0.8 nM | 
COc1ccc(-c2csc(SCC(=O)NC[C@H]3CN(Cc4ccc(Cl)c(Cl)c4)CCO3)n2)cc1OC [Example 13, (2S)-N-{[4-(3,4-dichlorobenzyl)morpholin-2-yl]methyl}-[4-(3,4-dimethoxyphenyl)thiazol-2-ylthio]acetamide] |  |  | 0.4 nM | 
NC(=O)c1csc(SCC(=O)NC[C@H]2CN(Cc3ccc(Cl)c(Cl)c3)CCO2)n1 [Example 15, (2S)-(4-carbamoylthiazol-2-ylthio)-N-{[4-(3,4-dichlorobenzyl)morpholin-2-yl]methyl}acetamide] |  |  | 0.4 nM | 1.6 nM
NC(=O)CNC(=O)c1csc(SCC(=O)NC[C@H]2CN(Cc3ccc(Cl)c(Cl)c3)CCO2)n1 [Example 17, (2S)-{4-[(2-amino-2-oxoethyl)aminocarbonyl]thiazol-2-ylthio}-N-{[4-(3,4-dichlorobenzyl)morpholin-2-yl]methyl}acetamide] | 3 mg/kg | 3 mg/kg | 0.9 nM | 2.5 nM
Cc1nc(-c2csc(SCC(=O)NC[C@H]3CN(Cc4ccc(Cl)c(Cl)c4)CCO3)n2)no1 [Example 23, (2S)-N-{[4-(3,4-dichlorobenzyl)morpholin-2-yl]methyl}-[4-(5-methyl-1,2,4-oxadiazol-3-yl)thiazol-2-ylthio]acetamide hydrochloride] |  |  | 1 nM | 0.8 nM
Nc1ccc2c(c1)-c1nc(SCC(=O)NC[C@H]3CN(Cc4ccc(Cl)c(Cl)c4)CCO3)sc1C2 [Example 27, (2S)-(5-amino-8H-indeno[1,2-d]thiazol-2-ylthio)-N-{[4-(3,4-dichlorobenzyl)morpholin-2-yl]methyl}acetamide] |  |  | 2.3 nM | 
O=C(CSc1ccc(C(=O)O)cc1)NC[C@H]1CN(Cc2ccc(Cl)c(Cl)c2)CCO1 [Example 37, (2S)-(4-carboxyphenylthio)-N-{[4-(3,4-dichlorobenzyl)morpholin-2-yl]methyl}acetamide] | 3 mg/kg | 3 mg/kg | 34.3 nM | 4.9 nM
